This is an account of results in patent US9346764B2, “Imidazolidinedione compounds and their uses” (HINOVA PHARMACEUTICALS INC., priority 2011, dated 2016).

For data set [1], the system named is prostate specific antigen (PSA). Description: Inhibition of prostate specific antigen (PSA) in 22RV1 cells induced with R1881. Particulars: Homo sapiens, 22Rv1, read-out: 22RV1 (IC50, nM). In kind it is cell-based. On the procedure:
(§1) The in vitro biological activity of test compounds of the present invention as androgen receptor antagonist can be tested by the methods as reported in J. Medcinal Chemistry (2010, page 2779-2796 and WO201 1/029392).
(§2) The inhibition activity of these compounds on prostate specific antigen (PSA) was determined using prostate cancer cells (LNCaP and 22RV1). Prostate cancer cells (LNCaP and 22RV1) could be purchased from ATCC, USA. The expression of PSA in cells was induced with the artificially synthesized androgen R1881 (methyltrienolone, androgen receptor activator) to increase the sensitivity of inhibition experiment.

Data set [2] has as its system human prostate cancer 22RV1 cells. Briefly: Inhibition of the growth of prostate cancer cells (MTT), 22RV1. The format is cell-based. The protocol: (§3) The ability of compounds to inhibit the growth of prostate cancer cells was tested:
(§4) First, the human prostate cancer LNCaP (purchased from ATCC, USA) and 22RV1 (purchased from SIBS) cells were transferred to a RPMI1640 culture medium containing 10% charcoal-stripped fetal bovine serum (FBS). After cultured for three days, the cells were digested with 0.25% trypsin and counted through trypan blue staining. The cells were plated, with 100 μL cell suspension containing 5000 cells per well. 200 μL medium was added to the wells around the cell plate for avoiding edge effects.
(§5) The cell plate was placed in a cell incubator for 30 min, 10 μL of 4 nM R1881 was added into each well and homogeneously mixed. Upon the addition of R1881, the cell plate was placed in a cell incubator and incubated at 37° C., under 5% CO2 for 96 hours. Afterwards, 40 μL of MTT (prepared in PBS, concentration is 2.5 mg/mL) was added into each wells, and incubated at 37° C. for 2 hours. The supernatant was sucked off, and 100 μL of DMSO was added into each well. The plate was shaken by a vibrator for 10 min for dissolving formazan. The plate was read at 570 nm wavelength using a microplate reader in the unit of OD.

The test system of data set [3] is human prostate cancer LNCaP cells. Briefly: Inhibition of the growth of prostate cancer cells (MTT), LNCaP. The format is cell-based. The protocol:
as §3, §4, §5

The test system of data set [4] is prostate specific antigen (PSA). Briefly: Inhibition of prostate specific antigen (PSA) in LNCaP cells induced with R1881. In kind it is cell-based. Particulars: Homo sapiens, read-out: LNCaP (IC50, nM). On the procedure: as §1, §2
Data set [5] in a line: Pharmacokinetic evaluation in mice. Particulars: male KM mice, 10 mg/kg intragastrically; for Cmax / Tmax: Kunming (KM), mouse, plasma, po, DMSO:PEG400:H2O 1:5:14. In kind it is in vivo, Kunming mice (KM mice). The protocol:
Compounds were dissolved in DMSO:PEG400:H2O 1:5:14. The volume of administration was 10 mL/kg. Before testing, the mice fasted for 12 h and drunk water ad libitum. Then, the mice were fed together at 2 h after administration. 0.3 mL of blood were took from 3 mice through retrobulbar venous plexus at 0.5, 1.0, 2.0, 4.0, 6.0 and 24 h after administration, placed in heparinized tubes, and centrifuged for 5 min at 11000 rpm. The plasma was separated and frozen in a refrigerator at −20° C. 100 uL of serum was transferred with a pipettor into a clean plastic centrifuge tube marked with compound's name and time point, and diluted with acetonitrile (CH3CN) and centrifuged. The concentration of drug was analyzed by LC-MS. Serum was stored at −80° C. before analysis.

Setting [6] is: Homo sapiens, 22Rv1, 96 h, read-out: 22RV1 (IC50, uM).
Where [7] appears, read: Homo sapiens, LNCaP, 96 h, read-out: LNCaP (IC50, uM).
[8] abbreviates: Homo sapiens, growth inhibition, 22RV1 cells, R1881 added, 96 hours, MTT, read-out: 22RV1 (IC50).
The mark [9] stands for this setting: Homo sapiens, growth inhibition, LNCaP cells, R1881 added, 96 hours, MTT, read-out: LNCaP (IC50).
[10] abbreviates: growth inhibition, LNCaP cells, R1881 added, 96 hours, MTT, read-out: LNCaP (IC50).

Where two headings read alike, the source gives them in different places. Some results are limits rather than exact numbers.

For the compound `CNC(=O)c1ccc(N2C(=S)N(c3ccc(C#N)c(C(F)(F)F)c3)C(=O)C23CCC3)cc1F` [Example 1, reference compound], the IC50 in data set [1] was less than 2000 nM; in data set [2] (setting [6]), 26 µM; in data set [3] (setting [7]), 4.09 µM; in data set [4], less than 1000 nM.

With `CN(C)C(=O)c1ccc(N2C(=S)N(c3ccc(C#N)c(C(F)(F)F)c3)C(=O)C23CCC3)cc1F` [Example 2], the IC50 in data set [1] is less than 1600 nM; in data set [2] (setting [8]) it was 20.8 µM; in data set [3] (setting [9]) it was 1.37 µM; in data set [4], less than 800 nM.

`[2H]C([2H])([2H])NC(=O)c1ccc(N2C(=S)N(c3ccc(C#N)c(C(F)(F)F)c3)C(=O)C23CCC3)cc1F` [Example 3]: the IC50 is less than 1000 nM in data set [1], 15 µM in data set [2] (setting [6]), 0.36 µM in data set [3] (setting [7]) and less than 400 nM in data set [4].

Turning to `CNC(=O)c1ccc(N2C(=S)N(c3ccc(C#N)c(C(F)(F)F)c3)C(=O)C2(C)C)cc1F` [Example 4, 4-{7-[4-cyano-3-(trifluoromethyl)phenyl]-5,5-dimethyl-4-oxo-2-thio-1-imidazolidinyl}-2-fluoro-N-methyl-benzamide, reference compound], in data set [5], the highest level (Cmax) was 8450 ng/mL and the Tmax came to 6 h.

As for `CN(C)C(=O)c1ccc(N2C(=S)N(c3ccc(C#N)c(C(F)(F)F)c3)C(=O)C2(C)C)cc1F` [Example 5, 4-{7-[4-cyano-3-(trifluoromethyl)phenyl]-5,5-dimethyl-4-oxo-2-thio-1-imidazolidinyl}-2-fluoro-N,N-dimethyl benzamide], the IC50 was less than 1600 nM in data set [1], 23.4 µM in data set [2] (setting [8]), 2.07 µM in data set [3] (setting [9]) and less than 800 nM in data set [4].

On to `[2H]C([2H])([2H])NC(=O)c1ccc(N2C(=S)N(c3ccc(C#N)c(C(F)(F)F)c3)C(=O)C2(C)C)cc1F` [Example 6, 4-{7-[4-cyano-3-(trifluoromethyl)phenyl]-5,5-dimethyl-4-oxo-2-thio-1-imidazolidinyl}-2-fluoro-N-trideuteromethylbenzamide], for which, in data set [5], the Cmax was 10400 ng/mL, the time to peak (Tmax) was 6 h, the “AUC compared with undeuterated compound 17” value was “significantly increased” and the “Cmax increase compared with undeuterated compound 17” value is listed as “at least 20%”.

For the compound `[2H]c1cc(N2C(=S)N(c3ccc(C#N)c(C(F)(F)F)c3)C(=O)C2(C)C)ccc1C(=O)NC` [Example 11, 4-{7-[4-cyano-3-(trifluoromethyl)phenyl]-5,5-dimethyl-4-oxo-2-thio-1-imidazolidinyl}-2-deutero-N-methyl benzamide], the IC50 in data set [2] (setting [6]) is 18.9 µM; in data set [3] (setting [7]), 1.75 µM.

Take `CNC(=O)c1ccc(N2C(=S)N(c3ccc(C#N)c(C(F)(F)F)c3)C(=O)C2(C)C)cc1` [Example 12, 4-{7-[4-cyano-3-(trifluoromethyl)phenyl]-5,5-dimethyl-4-oxo-2-thio-1-imidazolidinyl}-2-deutero-N-trideuteromethyl benzamide]: the concentration for half-maximal inhibition (IC50) in data set [2] (growth inhibition, 22RV1 cells, R1881 added, 96 hours, MTT, read-out: 22RV1 (IC50)) came to 25.8 µM; in data set [3] (setting [10]) it was 2.42 µM.

Take `CNC(=O)c1ccc(N2C(=S)N(c3ccc(C#N)c(C(F)(F)F)c3)C(=O)C2(C)C)cc1F` [Example 14, 4-{7-[4-cyano-3-trifluoromethyl-2,6-dideuterophenyl]-5,5-dimethyl-4-oxo-2-thio-1-imidazolidinyl}-2-fluoro-N-trideuteromethyl benzamide]: in data set [3] (setting [10]), the IC50 came out at 1.5 µM.

As for `CC(O)(CS(=O)(=O)c1ccc(F)cc1)C(=O)Nc1ccc(C#N)c(C(F)(F)F)c1` (centres unmarked) [bicalutamide, reference compound], the IC50 in data set [2] (setting [8]) was determined as 30.9 µM; in data set [3] (setting [9]) it was 18.4 µM.

The IC50 is the concentration that gives 50% inhibition. As usually defined, the Cmax is the peak of the concentration-time curve. Broadly, the Tmax is the time at which the peak concentration occurs.
